ChEMBL document CHEMBL1201862, “PubChem BioAssay data set” (2004)
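All cell lines were grown in 96-well plates and treated with compound for 48 hours. The concentration for 50% growth inhibition is given as GI50.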 Calls of active or inactive are those of the source. No stated cut-off is given here; in the data, active = GI50 up to about 1.1 µM and inactive = higher.

What was measured:
Assay in all cases: NCI anticancer screen, dose series, 48 h
NCI-H226 = system: NCI-H226
SF-268 = system: SF-268
UACC-62 = system: UACC-62
Hs-578T = system: Hs-578T
MDA-MB-435 = system: MDA-MB-435
HT-29 = system: HT-29
786-0 = system: 786-0
OVCAR-4 = system: OVCAR-4
NCI-H522 = system: NCI-H522
SNB-19 = system: SNB-19
Malme-3M = system: Malme-3M
RPMI-8226 = system: RPMI-8226
COLO 205 = system: COLO 205
SNB-75 = system: SNB-75
SN12C = system: SN12C
A549 = system: A549
M14 = system: M14
U-251 = system: U-251
UO-31 = system: UO-31
RXF 393 = system: RXF 393

COC1C(OC(=O)c2ccc(C)[nH]2)C(O)C(Oc2ccc3c(O)c(NC(=O)c4ccc(O)c(CC=C(C)C)c4)c(=O)oc3c2Cl)OC1(C)C (stereo unspecified)
GI50 (NCI-H226): 12.5 µM (inactive)
GI50 (SF-268): 17.3 µM (inactive)
GI50 (UACC-62): 15.7 µM (inactive)
GI50 (Hs-578T): 16.1 µM (inactive)
GI50 (MDA-MB-435): 30.2 µM (inactive)
GI50 (HT-29): 15 µM (inactive)
GI50 (786-0): 15.8 µM (inactive)
GI50 (OVCAR-4): 26.6 µM (inactive)
GI50 (NCI-H522): 13.2 µM (inactive)
GI50 (SNB-19): 15.7 µM (inactive)
GI50 (Malme-3M): 15.5 µM (inactive)
GI50 (RPMI-8226): 8.22 µM (inactive)
GI50 (COLO 205): 15.9 µM (inactive)
GI50 (SNB-75): 19.1 µM (inactive)
GI50 (SN12C): 20.7 µM (inactive)
GI50 (A549): 24.3 µM (inactive)
GI50 (M14): 16 µM (inactive)
GI50 (U-251): 12.8 µM (inactive)

CCOC(=O)NC
GI50 (UO-31): > 100 µM (inactive)
GI50 (RXF 393): > 100 µM (inactive)
GI50 (SF-268): > 100 µM (inactive)
GI50 (UACC-62): > 100 µM (inactive)
GI50 (Hs-578T): > 100 µM (inactive)
GI50 (MDA-MB-435): > 100 µM (inactive)
GI50 (HT-29): > 100 µM (inactive)
GI50 (786-0): > 100 µM (inactive)
GI50 (OVCAR-4): > 100 µM (inactive)
GI50 (SNB-19): > 100 µM (inactive)
GI50 (Malme-3M): > 100 µM (inactive)
GI50 (RPMI-8226): > 100 µM (inactive)
GI50 (COLO 205): > 100 µM (inactive)
GI50 (SNB-75): > 100 µM (inactive)
GI50 (SN12C): > 100 µM (inactive)
GI50 (A549): > 100 µM (inactive)
GI50 (M14): > 100 µM (inactive)
GI50 (U-251): > 100 µM (inactive)

N=C(CC/C(N)=N/O)NO
GI50 (UO-31): > 100 µM (inactive)
GI50 (RXF 393): > 100 µM (inactive)
GI50 (NCI-H226): > 100 µM (inactive)
GI50 (SF-268): > 100 µM (inactive)
GI50 (UACC-62): > 100 µM (inactive)
GI50 (Hs-578T): > 100 µM (inactive)
GI50 (MDA-MB-435): > 100 µM (inactive)
GI50 (HT-29): > 100 µM (inactive)
GI50 (786-0): > 100 µM (inactive)
GI50 (OVCAR-4): > 100 µM (inactive)
GI50 (NCI-H522): > 100 µM (inactive)
GI50 (SNB-19): > 100 µM (inactive)
GI50 (Malme-3M): > 100 µM (inactive)
GI50 (SNB-75): > 100 µM (inactive)
GI50 (SN12C): > 100 µM (inactive)
GI50 (A549): > 100 µM (inactive)
GI50 (M14): 38.7 µM (inactive)
GI50 (U-251): > 100 µM (inactive)

NC(=O)c1sc2nc3ccccc3n2c1N
GI50 (UO-31): > 100 µM (inactive)
GI50 (RXF 393): 21.1 µM (inactive)
GI50 (NCI-H226): > 100 µM (inactive)
GI50 (SF-268): 47.2 µM (inactive)
GI50 (UACC-62): 20 µM (inactive)
GI50 (Hs-578T): 46 µM (inactive)
GI50 (MDA-MB-435): > 100 µM (inactive)
GI50 (HT-29): > 100 µM (inactive)
GI50 (786-0): 40 µM (inactive)
GI50 (OVCAR-4): > 100 µM (inactive)
GI50 (SNB-19): 51.8 µM (inactive)
GI50 (Malme-3M): > 100 µM (inactive)
GI50 (RPMI-8226): > 100 µM (inactive)
GI50 (COLO 205): > 100 µM (inactive)
GI50 (SNB-75): 29.4 µM (inactive)
GI50 (A549): > 100 µM (inactive)
GI50 (M14): > 100 µM (inactive)
GI50 (U-251): 28.2 µM (inactive)

CN(C)Cc1cc(C(C)(C)C)cc(CNC2CCCCC2)c1O
GI50 (UO-31): 15.6 µM (inactive)
GI50 (RXF 393): 29.2 µM (inactive)
GI50 (SF-268): 18.7 µM (inactive)
GI50 (UACC-62): 51.9 µM (inactive)
GI50 (Hs-578T): 61.2 µM (inactive)
GI50 (MDA-MB-435): 65.9 µM (inactive)
GI50 (HT-29): 17.5 µM (inactive)
GI50 (786-0): 27.9 µM (inactive)
GI50 (OVCAR-4): 35.6 µM (inactive)
GI50 (NCI-H522): 24.2 µM (inactive)
GI50 (SNB-19): > 100 µM (inactive)
GI50 (Malme-3M): 25.6 µM (inactive)
GI50 (RPMI-8226): 16.7 µM (inactive)
GI50 (COLO 205): 15.9 µM (inactive)
GI50 (SNB-75): 52.4 µM (inactive)
GI50 (SN12C): 35.6 µM (inactive)
GI50 (A549): 29.6 µM (inactive)
GI50 (M14): 16.1 µM (inactive)
GI50 (U-251): 45 µM (inactive)

COc1cc([C@@H]2c3cc4c(cc3[C@@H](c3c(O)cc(O)c5c3O[C@H](c3ccc(O)c(O)c3)[C@H](OC(=O)c3cc(O)c(O)c(O)c3)C5)[C@H]3COC(=O)[C@H]23)OCO4)cc(OC)c1OC
GI50 (RXF 393): 4.67 µM (inactive)
GI50 (NCI-H226): 2.65 µM (inactive)
GI50 (SF-268): 5.79 µM (inactive)
GI50 (UACC-62): 4.73 µM (inactive)
GI50 (Hs-578T): 4.07 µM (inactive)
GI50 (MDA-MB-435): 2.54 µM (inactive)
GI50 (HT-29): 17.6 µM (inactive)
GI50 (786-0): 12.6 µM (inactive)
GI50 (OVCAR-4): 16.6 µM (inactive)
GI50 (NCI-H522): 3.92 µM (inactive)
GI50 (SNB-19): 52.7 µM (inactive)
GI50 (RPMI-8226): 5 µM (inactive)
GI50 (COLO 205): 25.9 µM (inactive)
GI50 (SNB-75): 3.47 µM (inactive)
GI50 (SN12C): 12.9 µM (inactive)
GI50 (A549): 11.9 µM (inactive)
GI50 (M14): 9.93 µM (inactive)
GI50 (U-251): 6.12 µM (inactive)

CC(=O)Oc1c(C)cc(-c2cc(C)c(OC(C)=O)c(C)c2)cc1C
GI50 (UO-31): 26.9 µM (inactive)
GI50 (NCI-H226): 29.7 µM (inactive)
GI50 (SF-268): 36 µM (inactive)
GI50 (UACC-62): 23 µM (inactive)
GI50 (Hs-578T): 15.7 µM (inactive)
GI50 (MDA-MB-435): 3.05 µM (inactive)
GI50 (HT-29): 45.4 µM (inactive)
GI50 (786-0): 36.3 µM (inactive)
GI50 (OVCAR-4): 82.6 µM (inactive)
GI50 (NCI-H522): 24 µM (inactive)
GI50 (SNB-19): 70.1 µM (inactive)
GI50 (Malme-3M): 89.3 µM (inactive)
GI50 (RPMI-8226): > 100 µM (inactive)
GI50 (COLO 205): 50.4 µM (inactive)
GI50 (SNB-75): 16.2 µM (inactive)
GI50 (SN12C): 47.1 µM (inactive)
GI50 (A549): 42.4 µM (inactive)
GI50 (M14): 31.1 µM (inactive)
GI50 (U-251): 15 µM (inactive)

Nc1c(Cl)ncnc1N[C@@H]1C[C@H]1CO
GI50 (UO-31): > 100 µM (inactive)
GI50 (RXF 393): > 100 µM (inactive)
GI50 (SF-268): > 100 µM (inactive)
GI50 (UACC-62): > 100 µM (inactive)
GI50 (Hs-578T): > 100 µM (inactive)
GI50 (MDA-MB-435): > 100 µM (inactive)
GI50 (HT-29): > 100 µM (inactive)
GI50 (786-0): > 100 µM (inactive)
GI50 (OVCAR-4): > 100 µM (inactive)
GI50 (NCI-H522): > 100 µM (inactive)
GI50 (SNB-19): > 100 µM (inactive)
GI50 (COLO 205): > 100 µM (inactive)
GI50 (SNB-75): 0.494 µM (active)
GI50 (SN12C): > 100 µM (inactive)
GI50 (A549): > 100 µM (inactive)
GI50 (M14): > 100 µM (inactive)
GI50 (U-251): > 100 µM (inactive)

Nc1ncnc2c1ncn2C1OC(COC2C(CO)OC(OC(C(=O)O)C(O)C(OP(=O)(O)O)C(O)C(=O)O)C(O)C2O)C(O)C1O (stereo unspecified)
GI50 (NCI-H226): > 100 µM (inactive)
GI50 (SF-268): > 100 µM (inactive)
GI50 (Hs-578T): 14.9 µM (inactive)
GI50 (MDA-MB-435): > 100 µM (inactive)
GI50 (HT-29): > 100 µM (inactive)
GI50 (786-0): > 100 µM (inactive)
GI50 (OVCAR-4): > 100 µM (inactive)
GI50 (NCI-H522): 59.3 µM (inactive)
GI50 (SNB-19): > 100 µM (inactive)
GI50 (Malme-3M): 45.7 µM (inactive)
GI50 (RPMI-8226): > 100 µM (inactive)
GI50 (COLO 205): > 100 µM (inactive)
GI50 (SNB-75): > 100 µM (inactive)
GI50 (A549): > 100 µM (inactive)
GI50 (M14): > 100 µM (inactive)
GI50 (U-251): > 100 µM (inactive)

COc1ccc(OC)c(C2CCc3c(cnc4nc(N)nc(N)c34)C2)c1 (stereo unspecified)
GI50 (RXF 393): 15.8 µM (inactive)
GI50 (NCI-H226): 24.9 µM (inactive)
GI50 (SF-268): 4.21 µM (inactive)
GI50 (UACC-62): 0.673 µM (active)
GI50 (Hs-578T): 15.7 µM (inactive)
GI50 (MDA-MB-435): 2.56 µM (inactive)
GI50 (HT-29): 2 µM (inactive)
GI50 (786-0): 4.48 µM (inactive)
GI50 (OVCAR-4): 10.2 µM (inactive)
GI50 (NCI-H522): 6.24 µM (inactive)
GI50 (SNB-19): 6.92 µM (inactive)
GI50 (Malme-3M): 4.83 µM (inactive)
GI50 (COLO 205): 16.1 µM (inactive)
GI50 (SN12C): 8.83 µM (inactive)
GI50 (A549): 1.24 µM (inactive)
GI50 (M14): 1.3 µM (inactive)
GI50 (U-251): 4.79 µM (inactive)

CC1(C)[N+]([O-])=[N+]([O-])C1(C)Br (stereo unspecified)
GI50 (UO-31): > 100 µM (inactive)
GI50 (RXF 393): 43.8 µM (inactive)
GI50 (NCI-H226): > 100 µM (inactive)
GI50 (SF-268): > 100 µM (inactive)
GI50 (UACC-62): > 100 µM (inactive)
GI50 (Hs-578T): > 100 µM (inactive)
GI50 (MDA-MB-435): > 100 µM (inactive)
GI50 (HT-29): > 100 µM (inactive)
GI50 (786-0): > 100 µM (inactive)
GI50 (OVCAR-4): > 100 µM (inactive)
GI50 (NCI-H522): > 100 µM (inactive)
GI50 (SNB-19): > 100 µM (inactive)
GI50 (COLO 205): > 100 µM (inactive)
GI50 (SNB-75): > 100 µM (inactive)
GI50 (SN12C): > 100 µM (inactive)
GI50 (A549): > 100 µM (inactive)
GI50 (M14): > 100 µM (inactive)
GI50 (U-251): > 100 µM (inactive)
